Laboratory results as given in the supplement of paper PMC10307832.

Tests used:
Experiment in all cases: relative viability (nuclei count vs DMSO), 5 days (fraction); higher = more cells survive
Lapatinib + Vorinostat = compound: CS(=O)(=O)CCNCc1ccc(-c2ccc3ncnc(Nc4ccc(OCc5cccc(F)c5)c(Cl)c4)c3c2)o1 [Lapatinib] + O=C(CCCCCCC(=O)Nc1ccccc1)NO [Vorinostat] (partner 1 µM)
In short: (§1)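 One day after seeding in 1536-well plates, lung cancer cell lines were dosed by pin tool. Dosing was either single-drug or a fixed anchor-drug dose plus five library-drug doses (not always all listed) in √10 steps. After 5 days, nuclei were stained in one fix-and-stain step and counted on 4× images, and relative viability is the nuclei count of treated wells over that of vehicle wells, given as the median of duplicate plates.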

Wnt-C59 + Tozasertib = compound: CC1=NC=CC(=C1)C2=CC=C(C=C2)CC(=O)NC3=CC=C(C=C3)C4=CN=CC=C4 [Wnt-C59] + Cc1cc(Nc2cc(N3CCN(C)CC3)nc(Sc3ccc(NC(=O)C4CC4)cc3)n2)n[nH]1 [Tozasertib] (partner 0.1 µM)
In short: as §1

Wnt-C59 + Palbociclib = compound: CC1=NC=CC(=C1)C2=CC=C(C=C2)CC(=O)NC3=CC=C(C=C3)C4=CN=CC=C4 [Wnt-C59] + CC(=O)c1c(C)c2cnc(Nc3ccc(N4CCNCC4)cn3)nc2n(C2CCCC2)c1=O [Palbociclib] (partner 0.5 µM)
In short: as §1

Lapatinib + Pemetrexed = compound: CS(=O)(=O)CCNCc1ccc(-c2ccc3ncnc(Nc4ccc(OCc5cccc(F)c5)c(Cl)c4)c3c2)o1 [Lapatinib] + Nc1nc2[nH]cc(CCc3ccc(C(=O)N[C@@H](CCC(=O)O)C(=O)O)cc3)c2c(=O)[nH]1 [Pemetrexed] (partner 0.2 µM)
In short: as §1

NCI-H2342
relative viability (Lapatinib + Vorinostat; first compound 0.02 µM): 0.562
relative viability (Lapatinib + Vorinostat; first compound 0.06325 µM): 0.596
relative viability (Lapatinib + Vorinostat; first compound 0.2 µM): 0.625
relative viability (Lapatinib + Vorinostat; first compound 0.6325 µM): 0.707
relative viability (Lapatinib + Vorinostat; first compound 2 µM): 0.693
relative viability (Wnt-C59 + Tozasertib; first compound 0.001 µM): 0.643
relative viability (Wnt-C59 + Tozasertib; first compound 0.01 µM): 0.416
relative viability (Wnt-C59 + Tozasertib; first compound 0.03162 µM): 0.53
relative viability (Wnt-C59 + Tozasertib; first compound 0.1 µM): 0.624
relative viability (Wnt-C59 + Palbociclib; first compound 0.001 µM): 0.491
relative viability (Wnt-C59 + Palbociclib; first compound 0.01 µM): 0.488
relative viability (Wnt-C59 + Palbociclib; first compound 0.03162 µM): 0.55
relative viability (Wnt-C59 + Palbociclib; first compound 0.1 µM): 0.504
relative viability (Lapatinib + Pemetrexed; first compound 0.02 µM): 0.576
relative viability (Lapatinib + Pemetrexed; first compound 0.06325 µM): 0.712
relative viability (Lapatinib + Pemetrexed; first compound 0.2 µM): 0.723
relative viability (Lapatinib + Pemetrexed; first compound 0.6325 µM): 0.776
relative viability (Lapatinib + Pemetrexed; first compound 2 µM): 0.714

NCI-H3122
relative viability (Lapatinib + Vorinostat; first compound 0.02 µM): 0.932
relative viability (Lapatinib + Vorinostat; first compound 0.06325 µM): 1.06
relative viability (Lapatinib + Vorinostat; first compound 0.2 µM): 0.963
relative viability (Lapatinib + Vorinostat; first compound 0.6325 µM): 0.977
relative viability (Lapatinib + Vorinostat; first compound 2 µM): 0.974
relative viability (Wnt-C59 + Tozasertib; first compound 0.001 µM): 0.409
relative viability (Wnt-C59 + Tozasertib; first compound 0.01 µM): 0.386
relative viability (Wnt-C59 + Tozasertib; first compound 0.03162 µM): 0.401
relative viability (Wnt-C59 + Tozasertib; first compound 0.1 µM): 0.377
relative viability (Wnt-C59 + Palbociclib; first compound 0.001 µM): 0.183
relative viability (Wnt-C59 + Palbociclib; first compound 0.01 µM): 0.201
relative viability (Wnt-C59 + Palbociclib; first compound 0.03162 µM): 0.22
relative viability (Wnt-C59 + Palbociclib; first compound 0.1 µM): 0.186
relative viability (Lapatinib + Pemetrexed; first compound 0.02 µM): 0.212
relative viability (Lapatinib + Pemetrexed; first compound 0.06325 µM): 0.199
relative viability (Lapatinib + Pemetrexed; first compound 0.2 µM): 0.206
relative viability (Lapatinib + Pemetrexed; first compound 0.6325 µM): 0.197
relative viability (Lapatinib + Pemetrexed; first compound 2 µM): 0.193

SW 900
relative viability (Lapatinib + Vorinostat; first compound 0.06325 µM): 0.516
relative viability (Lapatinib + Vorinostat; first compound 0.2 µM): 0.476
relative viability (Lapatinib + Vorinostat; first compound 0.6325 µM): 0.468
relative viability (Lapatinib + Vorinostat; first compound 2 µM): 0.408
relative viability (Wnt-C59 + Tozasertib; first compound 0.001 µM): 0.538
relative viability (Wnt-C59 + Tozasertib; first compound 0.01 µM): 0.502
relative viability (Wnt-C59 + Tozasertib; first compound 0.03162 µM): 0.557
relative viability (Wnt-C59 + Tozasertib; first compound 0.1 µM): 0.589
relative viability (Wnt-C59 + Palbociclib; first compound 0.001 µM): 0.48
relative viability (Wnt-C59 + Palbociclib; first compound 0.01 µM): 0.461
relative viability (Wnt-C59 + Palbociclib; first compound 0.03162 µM): 0.608
relative viability (Wnt-C59 + Palbociclib; first compound 0.1 µM): 0.54
relative viability (Lapatinib + Pemetrexed; first compound 0.06325 µM): 0.432
relative viability (Lapatinib + Pemetrexed; first compound 0.2 µM): 0.494
relative viability (Lapatinib + Pemetrexed; first compound 0.6325 µM): 0.471
relative viability (Lapatinib + Pemetrexed; first compound 2 µM): 0.45

NCI-H2085
relative viability (Lapatinib + Vorinostat; first compound 0.02 µM): 0.666
relative viability (Lapatinib + Vorinostat; first compound 0.06325 µM): 0.716
relative viability (Lapatinib + Vorinostat; first compound 0.2 µM): 0.795
relative viability (Lapatinib + Vorinostat; first compound 0.6325 µM): 0.741
relative viability (Lapatinib + Vorinostat; first compound 2 µM): 0.587
relative viability (Wnt-C59 + Tozasertib; first compound 0.001 µM): 0.807
relative viability (Wnt-C59 + Tozasertib; first compound 0.01 µM): 0.795
relative viability (Wnt-C59 + Tozasertib; first compound 0.03162 µM): 0.831
relative viability (Wnt-C59 + Tozasertib; first compound 0.1 µM): 0.824
relative viability (Wnt-C59 + Palbociclib; first compound 0.001 µM): 0.459
relative viability (Wnt-C59 + Palbociclib; first compound 0.01 µM): 0.425
relative viability (Wnt-C59 + Palbociclib; first compound 0.03162 µM): 0.477
relative viability (Wnt-C59 + Palbociclib; first compound 0.1 µM): 0.471
relative viability (Lapatinib + Pemetrexed; first compound 0.02 µM): 0.743
relative viability (Lapatinib + Pemetrexed; first compound 0.06325 µM): 0.806
relative viability (Lapatinib + Pemetrexed; first compound 0.2 µM): 0.911
relative viability (Lapatinib + Pemetrexed; first compound 0.6325 µM): 0.847
relative viability (Lapatinib + Pemetrexed; first compound 2 µM): 0.605

NCI-H1395
relative viability (Lapatinib + Vorinostat; first compound 0.06325 µM): 0.704
relative viability (Lapatinib + Vorinostat; first compound 0.2 µM): 0.779
relative viability (Lapatinib + Vorinostat; first compound 0.6325 µM): 0.789
relative viability (Lapatinib + Vorinostat; first compound 2 µM): 0.646
relative viability (Wnt-C59 + Tozasertib; first compound 0.001 µM): 0.71
relative viability (Wnt-C59 + Tozasertib; first compound 0.01 µM): 0.668
relative viability (Wnt-C59 + Tozasertib; first compound 0.03162 µM): 0.755
relative viability (Wnt-C59 + Tozasertib; first compound 0.1 µM): 0.844
relative viability (Wnt-C59 + Palbociclib; first compound 0.001 µM): 0.598
relative viability (Wnt-C59 + Palbociclib; first compound 0.01 µM): 0.652
relative viability (Wnt-C59 + Palbociclib; first compound 0.03162 µM): 0.566
relative viability (Wnt-C59 + Palbociclib; first compound 0.1 µM): 0.573
relative viability (Lapatinib + Pemetrexed; first compound 0.06325 µM): 0.938
relative viability (Lapatinib + Pemetrexed; first compound 0.2 µM): 0.87
relative viability (Lapatinib + Pemetrexed; first compound 0.6325 µM): 0.887
relative viability (Lapatinib + Pemetrexed; first compound 2 µM): 0.793

NCI-H1650
relative viability (Lapatinib + Vorinostat; first compound 0.02 µM): 0.474
relative viability (Lapatinib + Vorinostat; first compound 0.06325 µM): 0.578
relative viability (Lapatinib + Vorinostat; first compound 0.2 µM): 0.554
relative viability (Lapatinib + Vorinostat; first compound 0.6325 µM): 0.516
relative viability (Lapatinib + Vorinostat; first compound 2 µM): 0.664
relative viability (Wnt-C59 + Tozasertib; first compound 0.001 µM): 0.423
relative viability (Wnt-C59 + Tozasertib; first compound 0.01 µM): 0.477
relative viability (Wnt-C59 + Tozasertib; first compound 0.03162 µM): 0.499
relative viability (Wnt-C59 + Tozasertib; first compound 0.1 µM): 0.423
relative viability (Wnt-C59 + Palbociclib; first compound 0.001 µM): 0.341
relative viability (Wnt-C59 + Palbociclib; first compound 0.01 µM): 0.321
relative viability (Wnt-C59 + Palbociclib; first compound 0.03162 µM): 0.318
relative viability (Wnt-C59 + Palbociclib; first compound 0.1 µM): 0.378
relative viability (Lapatinib + Pemetrexed; first compound 0.02 µM): 0.364
relative viability (Lapatinib + Pemetrexed; first compound 0.06325 µM): 0.377
relative viability (Lapatinib + Pemetrexed; first compound 0.2 µM): 0.395
relative viability (Lapatinib + Pemetrexed; first compound 0.6325 µM): 0.337
relative viability (Lapatinib + Pemetrexed; first compound 2 µM): 0.345

EKVX
relative viability (Lapatinib + Vorinostat; first compound 0.06325 µM): 0.476
relative viability (Lapatinib + Vorinostat; first compound 0.2 µM): 0.48
relative viability (Lapatinib + Vorinostat; first compound 0.6325 µM): 0.426
relative viability (Lapatinib + Vorinostat; first compound 2 µM): 0.26
relative viability (Wnt-C59 + Tozasertib; first compound 0.001 µM): 0.437
relative viability (Wnt-C59 + Tozasertib; first compound 0.01 µM): 0.357
relative viability (Wnt-C59 + Tozasertib; first compound 0.03162 µM): 0.406
relative viability (Wnt-C59 + Tozasertib; first compound 0.1 µM): 0.402
relative viability (Wnt-C59 + Palbociclib; first compound 0.001 µM): 0.389
relative viability (Wnt-C59 + Palbociclib; first compound 0.03162 µM): 0.327
relative viability (Wnt-C59 + Palbociclib; first compound 0.1 µM): 0.179
relative viability (Lapatinib + Pemetrexed; first compound 0.06325 µM): 0.361
relative viability (Lapatinib + Pemetrexed; first compound 0.2 µM): 0.344
relative viability (Lapatinib + Pemetrexed; first compound 0.6325 µM): 0.274
relative viability (Lapatinib + Pemetrexed; first compound 2 µM): 0.355

HCC-15
relative viability (Lapatinib + Vorinostat; first compound 0.06325 µM): 0.779
relative viability (Lapatinib + Vorinostat; first compound 0.2 µM): 0.813
relative viability (Lapatinib + Vorinostat; first compound 0.6325 µM): 0.858
relative viability (Lapatinib + Vorinostat; first compound 2 µM): 0.693
relative viability (Wnt-C59 + Tozasertib; first compound 0.001 µM): 0.407
relative viability (Wnt-C59 + Tozasertib; first compound 0.01 µM): 0.389
relative viability (Wnt-C59 + Tozasertib; first compound 0.03162 µM): 0.322
relative viability (Wnt-C59 + Tozasertib; first compound 0.1 µM): 0.44
relative viability (Wnt-C59 + Palbociclib; first compound 0.001 µM): 0.769
relative viability (Wnt-C59 + Palbociclib; first compound 0.01 µM): 0.735
relative viability (Wnt-C59 + Palbociclib; first compound 0.03162 µM): 0.7
relative viability (Wnt-C59 + Palbociclib; first compound 0.1 µM): 0.717
relative viability (Lapatinib + Pemetrexed; first compound 0.06325 µM): 0.212
relative viability (Lapatinib + Pemetrexed; first compound 0.2 µM): 0.223
relative viability (Lapatinib + Pemetrexed; first compound 0.6325 µM): 0.212
relative viability (Lapatinib + Pemetrexed; first compound 2 µM): 0.203

LK-2
relative viability (Lapatinib + Vorinostat; first compound 0.02 µM): 0.173
relative viability (Lapatinib + Vorinostat; first compound 0.2 µM): 0.222
relative viability (Lapatinib + Vorinostat; first compound 0.6325 µM): 0.325
relative viability (Lapatinib + Vorinostat; first compound 2 µM): 0.357
relative viability (Wnt-C59 + Tozasertib; first compound 0.001 µM): 0.165
relative viability (Wnt-C59 + Tozasertib; first compound 0.01 µM): 0.173
relative viability (Wnt-C59 + Tozasertib; first compound 0.03162 µM): 0.189
relative viability (Wnt-C59 + Tozasertib; first compound 0.1 µM): 0.18
relative viability (Wnt-C59 + Palbociclib; first compound 0.001 µM): 0.524
relative viability (Wnt-C59 + Palbociclib; first compound 0.01 µM): 0.739
relative viability (Wnt-C59 + Palbociclib; first compound 0.03162 µM): 0.705
relative viability (Wnt-C59 + Palbociclib; first compound 0.1 µM): 0.535
relative viability (Lapatinib + Pemetrexed; first compound 0.02 µM): 0.137
relative viability (Lapatinib + Pemetrexed; first compound 0.2 µM): 0.261
relative viability (Lapatinib + Pemetrexed; first compound 2 µM): 0.264
